Assay results as given in patent US9073880B2, “2-(2-phenylethenyl) 1,3-benzodiazepine derivatives useful for the treatment of cancer” (Yissum Research Development Company of the Hebrew …, priority 2010, dated 2015).

Tests used:
Format in all cases: cell-based
[1] = test system: Human ovary cancer A2780 cells; experiment: Cell proliferation, A2780 (Example 4); details: compound in 2-hydroxypropyl-β-cyclodextrin
Experimental: (§1) Human ovary cancer A2780 cells lines were seeded at a density of 5000 cells/well, human melanoma A375 cells were plated at a density of 2,500 cells/well, human colon carcinoma HCT15 cells were plated at a density of 3,000 cells/well, human prostate carcinoma PC3 cells were plated at a density of 1,500 cells/well, human breast carcinoma MCF7 cells were plated at a density of 5,000 cells/well, human breast carcinoma MDA MB 468 cells were plated at a density of 6,000 cells/well, human myeloma U266, RPMI8226 and CAG cells were plated at a density of 10,000 cells/well. All cells were plated in 96-well plates in 90 μl growth medium containing 10% FCS, 100 units/ml penicillin and 100 μg/ml streptomycin. Compound 3 was added a day later in […] of 1% DMSO in DDW to obtain final concentrations of 0, 0.1, 0.3, 1, 3, and 10 μM. The final concentration of DMSO (0.1% DMSO) was kept constant in all samples. Following exposure of the cells to compound 3 for 72 hours at 37° C., adhered cells were fixed in 0.5% gluteraldehyde in medium for 10 min, washed three times with DDW, once with 0.1M sodium borate buffer pH 8.5 and stained with 1% methylene blue dissolved in 0.1M borate buffer solution for 60 min. Excess dye was washed out and cell-bound dye was eluted with 200 μl/well of 0.1M HCl. The optical density values were read at 630 nm in ELISA plate reader. Non-adhered cells were exposed to WST-1 reagent for 5 hours following 72 hours treatment with the inhibitors, and optical density values were read at 630 nm in ELISA plate reader. The data was analyzed in Microsoft Excel, using the vehicle control as 100% proliferation. The assays were performed in triplicates. The values of IC50 were derived from the dose-dependent growth curves obtained.
(§2) Cell proliferation assay was performed as described in Example 2. […]

[2] = test system: human multiple myeloma MM1S cells; experiment: Cell proliferation, MM1S (Example 4); details: MM1.S, compound in 2-hydroxypropyl-β-cyclodextrin
Experimental: as §1
(§3) Cell proliferation assay was performed as described in Example 2. The following cell line were plated in 96-well plates in 90 μl growth medium containing 10% FCS, 100 units/ml penicillin and 100 μg/ml streptomycin: human ovary cancer A2780 cells (4500 cells/well), human melanoma A375 (1500 cells/well) and YUMAC (2500 cells/well) cells, human colon carcinoma HCT15 (3000 cells/well) and HCT116 (2000 cells/well) cells, human prostate carcinoma PC3 (3000 cells/well), PC3MM2 (3500 cells/well) and DU145 (300 cells/well) cells, human hepatocarcinoma HepG2 (3000 cells/well), human Ewing sarcoma SK-ES-1 (4,500 cells/well), human glioblastoma U138MG (2,000 cells/well), human breast cancer T47D (4000 cells/well) and MDA-MB-468 (6000 cells/well) cells, human small cell lung carcinoma NCI-H1975 (5000 cells/well) cells, human osteosarcoma Saos-2 (5000 cells/well) cells, human pancreatic cancer ASPC (2500 cells/well) cells, human bladder carcinoma T24P (1000 cells/well) cells, human gastric cancer NCI-N87 (5000 cells/well) cells, human lymphoma KARPAS (5,000 cells/well) cells, human leukemia K562 (5,000 cells/well) cells and human multiple myeloma MM1S (10,000 cells/well), U266 (10,000 cells/well) and CAG (5,000 cells/well). Compounds 2-5 and 7-8 were added a day later in 10 μl of 0.7% 2-hydroxypropyl-β-cyclodextrin to obtain final concentrations of 0, 0.1, 0.3, 1, 3 and 10 μM.
Compounds 2-5 and 7-8 of the present invention were tested for their inhibitory potential in cell proliferation assay. Human ovary cancer A2780 cells, human melanoma A375 and YUMAC cells, human colon carcinoma HCT15 and HCT116 cells, human prostate carcinoma PC3, PC3MM2 and DU145 cells, human hepatocarcinoma HepG2 cells, human Ewing sarcoma SK-ES-1 cells, human glioblastoma U138MG cells, human breast cancer T47D and MDA-MB-468 cells, human small cell lung carcinoma NCI-H1975 cells, human osteosarcoma Saos-2 cells, human pancreatic cancer ASPC cells, human bladder cancer T24P cells, human gastric cancer cells, human lymphoma KARPAS cells, human leukemia K562 cells, and human multiple myeloma MM1S, CAG and U266 cells, were exposed to increasing concentrations of compounds 2-5 and 7-8. […]

[3] = test system: human breast cancer MDA-MB-468 cells; experiment: Cell proliferation, MDA-MB-468 (Example 4); details: MDA-MB-468, breast cancer, compound in 2-hydroxypropyl-β-cyclodextrin
Experimental: as §1, §2

[4] = test system: human hepatocarcinoma HepG2 cells; experiment: Cell proliferation, HepG2 (Example 4); details: compound in 2-hydroxypropyl-β-cyclodextrin
Experimental: as §1, §2

[5] = test system: human bladder carcinoma T24P cells; experiment: Cell proliferation, T24P (Example 4); details: compound in 2-hydroxypropyl-β-cyclodextrin
Experimental: as §1, §2

[6] = test system: human Ewing sarcoma SK-ES-1 cells; experiment: Cell proliferation, SK-ES-1 (Example 4); details: SK-ES1, SK-ES-1, Ewing sarcoma, compound in 2-hydroxypropyl-β-cyclodextrin
Experimental: as §1, §2

human NCI-H1975 cells = experiment: Cell proliferation, NCI-H1975 (Example 4); details: NCI-H1975, SCLC, compound in 2-hydroxypropyl-β-cyclodextrin
Experimental: as §1, §2

[7] = test system: human multiple myeloma CAG cells; experiment: Cell proliferation, CAG (Example 4); details: compound in 2-hydroxypropyl-β-cyclodextrin
Experimental: as §1, §2

[8] = test system: human gastric cancer NCI-N87 cells; experiment: Cell proliferation, NCI-N87 (Example 4); details: compound in 2-hydroxypropyl-β-cyclodextrin
Experimental: as §1, §2

[9] = test system: human prostate carcinoma PC3MM2 cells; experiment: Cell proliferation, PC3MM2 (Example 4); details: PC3MM2, prostate cancer, compound in 2-hydroxypropyl-β-cyclodextrin
Experimental: as §1, §2

[10] = test system: human pancreatic cancer ASPC cells; experiment: Cell proliferation, ASPC (Example 4); details: compound in 2-hydroxypropyl-β-cyclodextrin
Experimental: as §1, §3
(§4) Compounds 2-5 and 7-8 of the present invention were tested for their inhibitory potential in cell proliferation assay. […]

[11] = test system: human breast cancer T47D cells; experiment: Cell proliferation, T47D (Example 4); details: compound in 2-hydroxypropyl-β-cyclodextrin
Experimental: as §1, §2

[12] = test system: human osteosarcoma Saos-2 cells; experiment: Cell proliferation, Saos-2 (Example 4); details: Saos-2, osteosarcoma, compound in 2-hydroxypropyl-β-cyclodextrin
Experimental: as §1, §2

[13] = test system: human melanoma YUMAC cells; experiment: Cell proliferation, YUMAC (Example 4); details: compound in 2-hydroxypropyl-β-cyclodextrin
Experimental: as §1, §3, §4

[14] = test system: human leukemia K562 cells; experiment: Cell proliferation, K562 (Example 4); details: compound in 2-hydroxypropyl-β-cyclodextrin
Experimental: as §1, §3, §4

[15] = test system: human glioblastoma U138MG cells; experiment: Cell proliferation, U138MG (Example 4); details: U138-MG, compound in 2-hydroxypropyl-β-cyclodextrin
Experimental: as §1, §2

[16] = test system: human colon carcinoma HCT116 cells; experiment: Cell proliferation, HCT116 (Example 4); details: HCT-116, HCT116, colon cancer, compound in 2-hydroxypropyl-β-cyclodextrin
Experimental: as §1, §3, §4

[17] = test system: human lymphoma KARPAS cells; experiment: Cell proliferation, KARPAS (Example 4); details: compound in 2-hydroxypropyl-β-cyclodextrin
Experimental: as §1, §2

[18] = test system: human prostate carcinoma DU145 cells; experiment: Cell proliferation, DU145 (Example 4); details: DU-145, DU145, prostate cancer, compound in 2-hydroxypropyl-β-cyclodextrin
Experimental: as §1, §2

`N#C/C(=C\c1cc(O)c(O)c(I)c1)c1ncc2cc(O)c(=O)c(O)c-2s1` [Compound 2] showed an IC50 [1] of 600 nM, an IC50 [2] of 2000 nM and an IC50 [3] of 1200 nM. The IC50 [4] was 2800 nM.
Work on `O=c1c(O)cc2cnc(/C=C/c3cc(O)c(O)c(I)c3)sc-2c1O` [Compound 4] yielded an IC50 [5] of 3200 nM, an IC50 [6] of 200 nM and an IC50 (human NCI-H1975 cells) of 1100 nM. For the same compound, the IC50 [7] was 3000 nM, the IC50 [8] was 4800 nM and the IC50 [9] was 900 nM. It also gave an IC50 [10] of 18500 nM, an IC50 [1] of 300 nM and an IC50 [11] of 700 nM. The IC50 [12] was 2000 nM, the IC50 [13] was 500 nM and the IC50 [2] was 700 nM. The IC50 [3] was 2200 nM, the IC50 [14] was 900 nM and the IC50 [15] was 300 nM. For the same compound, the IC50 [16] was 700 nM, the IC50 [17] was 1500 nM and the IC50 [4] was 2700 nM. For the same compound, the IC50 [18] was 2000 nM.
Work on `O=c1c(O)cc2cnc(/C=C/c3cc(O)c(O)cc3Br)sc-2c1O` [Compound 7] yielded an IC50 [5] of 4500 nM, an IC50 [6] of 200 nM and an IC50 (human NCI-H1975 cells) of 2600 nM. The IC50 [7] was 4900 nM, the IC50 [8] was 8400 nM and the IC50 [10] was 13300 nM. It also gave an IC50 [12] of 2700 nM, an IC50 [13] of 500 nM and an IC50 [2] of 200 nM. The IC50 [14] was 1800 nM, the IC50 [15] was 800 nM and the IC50 [16] was 1400 nM. The IC50 [17] was 1800 nM and the IC50 [18] was 2300 nM.
Work on `O=c1c(O)c2sc(/C=C/c3cc(O)c(O)c(Br)c3)ncc-2c(Br)c1O` [Compound 8] yielded an IC50 [10] of 17700 nM, an IC50 [13] of 500 nM and an IC50 [2] of 500 nM. It also gave an IC50 [14] of 800 nM and an IC50 [16] of 800 nM.
